Reference: ChEMBL document CHEMBL1201862, “PubChem BioAssay data set” (2004)
Calls of active or inactive are those of the source.

How the values were obtained:
BJ [1] = assay: BJ-TERT fibroblast viability loss – cell-based, RAS-independent, luminescence, dose response (AID 1933); type: functional; details: Homo sapiens
BJ [2] = assay: cells; type: functional, cell-based; details: Homo sapiens
BJ [3] = assay: BJ-TERT-LT-ST fibroblast viability loss – cell-based, RAS-independent, luminescence, dose response (AID 1935); type: functional; details: Homo sapiens;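 also: BJ fibroblasts immortalized with TERT plus LT and ST oncogenes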
[4] = DRD fibroblast viability loss – cell-based, non-viral oncogenic, luminescence, dose response (AID 1934); type: functional; details: Homo sapiens
[5] = biological target: T1, Microphthalmia-associated transcription factor (Homo sapiens, UniProt O75030); assay: reducers of TRPM1 reporter luminescence, concentration series – cell-based, SK-MEL-5, cherry-picked, set 3, MITF inhibitor project, dose response (AID 493073); type: functional;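 also: SK-MEL-5 melanoma cells with luciferase driven by the MITF target TRPM1 promoter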
T1 sequence (O75030 whole entry): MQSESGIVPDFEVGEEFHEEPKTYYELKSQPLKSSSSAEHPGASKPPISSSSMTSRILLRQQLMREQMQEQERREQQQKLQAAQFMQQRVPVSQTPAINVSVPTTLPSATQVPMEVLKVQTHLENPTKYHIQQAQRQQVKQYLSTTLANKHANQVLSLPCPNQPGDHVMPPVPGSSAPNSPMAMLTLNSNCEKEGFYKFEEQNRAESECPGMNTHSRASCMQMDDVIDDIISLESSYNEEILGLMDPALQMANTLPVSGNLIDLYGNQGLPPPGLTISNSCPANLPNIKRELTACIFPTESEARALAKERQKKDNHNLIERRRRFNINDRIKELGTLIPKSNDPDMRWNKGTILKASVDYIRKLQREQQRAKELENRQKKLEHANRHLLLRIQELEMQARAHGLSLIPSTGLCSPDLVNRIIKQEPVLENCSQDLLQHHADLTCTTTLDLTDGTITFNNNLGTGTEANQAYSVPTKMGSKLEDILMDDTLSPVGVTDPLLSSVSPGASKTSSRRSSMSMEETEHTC

BJ [6] = assay: growth inhibition of engineered Ras-driven BJ cells – cell-based, alamar blue fluorescence, cherrypicked samples, dose response (AID 2631); type: functional; details: Homo sapiens;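 also: confirmatory dose-response assay in RAS-dependent BJ fibroblasts engineered with TERT, LT and ST, with cytotoxicity read by fluorescence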
[7] = biological target: FAD-linked sulfhydryl oxidase ALR (Homo sapiens, UniProt P55789); assay: ALR-catalysed DTT oxidation blockers – biochemical, H2O2 detection, luminescence, cherry-pick, dose response (AID 493248)
[8] = biological target: T2, Endoribonuclease toxin MazF (Escherichia coli K-12, UniProt P0AE70); assay: activation of MazEF endoribonuclease cleavage – biochemical, fluorescence, single-stranded RNA substrate, uHTS hits, dose response (AID 588481); type: functional
T2 sequence (P0AE70 whole entry): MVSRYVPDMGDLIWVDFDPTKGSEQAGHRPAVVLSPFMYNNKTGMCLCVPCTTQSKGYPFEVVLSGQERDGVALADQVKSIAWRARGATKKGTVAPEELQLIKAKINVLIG

[9] = biological target: T2, Endoribonuclease toxin MazF; assay: substrate-only fluorescence increase artefacts – biochemical, single-stranded RNase substrate, counter-screen for MazEF activator project, dose response (AID 588502); type: functional
Caspase-6 = biological target: T3, Caspase-6 (Homo sapiens, UniProt P55212); assay: inhibition of CASP6 peptide cleavage – biochemical, VEID-R110 fluorescence, cherry-pick, dose response (AID 720632)
T3 sequence (P55212 whole entry): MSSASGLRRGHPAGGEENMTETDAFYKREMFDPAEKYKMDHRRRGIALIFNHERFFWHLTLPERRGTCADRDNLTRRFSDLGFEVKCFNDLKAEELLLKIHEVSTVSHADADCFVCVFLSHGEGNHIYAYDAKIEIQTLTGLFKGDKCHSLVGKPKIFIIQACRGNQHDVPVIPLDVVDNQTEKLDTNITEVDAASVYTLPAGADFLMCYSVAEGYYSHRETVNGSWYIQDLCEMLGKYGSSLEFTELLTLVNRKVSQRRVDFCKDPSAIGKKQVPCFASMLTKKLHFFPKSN

[10] = biological target: T4, Apoptotic protease-activating factor 1 (Homo sapiens, UniProt O14727); type: functional
T4 sequence (O14727 whole entry): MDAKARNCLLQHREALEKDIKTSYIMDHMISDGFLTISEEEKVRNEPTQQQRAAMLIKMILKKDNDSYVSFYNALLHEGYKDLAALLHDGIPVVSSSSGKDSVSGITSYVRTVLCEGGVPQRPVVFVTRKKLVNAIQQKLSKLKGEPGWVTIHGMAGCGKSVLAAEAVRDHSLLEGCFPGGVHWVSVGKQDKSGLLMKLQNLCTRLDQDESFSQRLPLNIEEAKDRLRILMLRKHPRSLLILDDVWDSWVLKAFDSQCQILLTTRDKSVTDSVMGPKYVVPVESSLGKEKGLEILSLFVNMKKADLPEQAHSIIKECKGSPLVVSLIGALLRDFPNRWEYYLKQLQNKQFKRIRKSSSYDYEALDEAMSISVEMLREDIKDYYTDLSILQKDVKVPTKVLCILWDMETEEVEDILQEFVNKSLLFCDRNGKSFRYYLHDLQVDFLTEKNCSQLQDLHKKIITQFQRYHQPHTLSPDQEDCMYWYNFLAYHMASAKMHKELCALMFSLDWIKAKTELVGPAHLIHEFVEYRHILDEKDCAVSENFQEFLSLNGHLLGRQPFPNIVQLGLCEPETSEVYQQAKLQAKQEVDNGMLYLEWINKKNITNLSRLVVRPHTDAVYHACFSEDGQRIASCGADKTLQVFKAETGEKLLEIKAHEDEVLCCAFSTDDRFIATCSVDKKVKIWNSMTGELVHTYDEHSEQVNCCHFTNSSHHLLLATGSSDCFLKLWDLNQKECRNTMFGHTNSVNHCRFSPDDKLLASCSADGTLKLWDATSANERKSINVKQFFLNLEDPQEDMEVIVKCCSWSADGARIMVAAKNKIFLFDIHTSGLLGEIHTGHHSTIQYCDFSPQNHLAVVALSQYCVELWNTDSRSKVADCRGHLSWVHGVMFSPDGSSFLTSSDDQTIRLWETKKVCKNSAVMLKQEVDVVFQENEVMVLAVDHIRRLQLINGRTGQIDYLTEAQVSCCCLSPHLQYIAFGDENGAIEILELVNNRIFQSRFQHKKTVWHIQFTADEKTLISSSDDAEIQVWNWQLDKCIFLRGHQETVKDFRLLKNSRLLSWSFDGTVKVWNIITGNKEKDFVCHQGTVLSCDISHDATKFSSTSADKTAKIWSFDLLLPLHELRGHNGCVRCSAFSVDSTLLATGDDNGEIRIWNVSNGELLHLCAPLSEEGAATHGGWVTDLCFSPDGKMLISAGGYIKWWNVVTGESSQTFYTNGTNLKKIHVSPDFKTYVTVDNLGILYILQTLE

Paired box protein Pax-8 = Paired box protein Pax-8 (Homo sapiens, UniProt Q06710); assay: PAX8 transcriptional activity inhibition in RMG-I – RMG-I cells, luciferase, cherry-pick, dose response (AID 687027); type: functional, cell-based;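 also: luciferase reporter driven by Pax8 target thyroperoxidase promoter measured by SteadyGlo luminescence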
[11] = biological target: T5, Histone-lysine N-methyltransferase NSD2 (Homo sapiens, UniProt O96028); type: biochemical
T5 sequence (O96028 whole entry): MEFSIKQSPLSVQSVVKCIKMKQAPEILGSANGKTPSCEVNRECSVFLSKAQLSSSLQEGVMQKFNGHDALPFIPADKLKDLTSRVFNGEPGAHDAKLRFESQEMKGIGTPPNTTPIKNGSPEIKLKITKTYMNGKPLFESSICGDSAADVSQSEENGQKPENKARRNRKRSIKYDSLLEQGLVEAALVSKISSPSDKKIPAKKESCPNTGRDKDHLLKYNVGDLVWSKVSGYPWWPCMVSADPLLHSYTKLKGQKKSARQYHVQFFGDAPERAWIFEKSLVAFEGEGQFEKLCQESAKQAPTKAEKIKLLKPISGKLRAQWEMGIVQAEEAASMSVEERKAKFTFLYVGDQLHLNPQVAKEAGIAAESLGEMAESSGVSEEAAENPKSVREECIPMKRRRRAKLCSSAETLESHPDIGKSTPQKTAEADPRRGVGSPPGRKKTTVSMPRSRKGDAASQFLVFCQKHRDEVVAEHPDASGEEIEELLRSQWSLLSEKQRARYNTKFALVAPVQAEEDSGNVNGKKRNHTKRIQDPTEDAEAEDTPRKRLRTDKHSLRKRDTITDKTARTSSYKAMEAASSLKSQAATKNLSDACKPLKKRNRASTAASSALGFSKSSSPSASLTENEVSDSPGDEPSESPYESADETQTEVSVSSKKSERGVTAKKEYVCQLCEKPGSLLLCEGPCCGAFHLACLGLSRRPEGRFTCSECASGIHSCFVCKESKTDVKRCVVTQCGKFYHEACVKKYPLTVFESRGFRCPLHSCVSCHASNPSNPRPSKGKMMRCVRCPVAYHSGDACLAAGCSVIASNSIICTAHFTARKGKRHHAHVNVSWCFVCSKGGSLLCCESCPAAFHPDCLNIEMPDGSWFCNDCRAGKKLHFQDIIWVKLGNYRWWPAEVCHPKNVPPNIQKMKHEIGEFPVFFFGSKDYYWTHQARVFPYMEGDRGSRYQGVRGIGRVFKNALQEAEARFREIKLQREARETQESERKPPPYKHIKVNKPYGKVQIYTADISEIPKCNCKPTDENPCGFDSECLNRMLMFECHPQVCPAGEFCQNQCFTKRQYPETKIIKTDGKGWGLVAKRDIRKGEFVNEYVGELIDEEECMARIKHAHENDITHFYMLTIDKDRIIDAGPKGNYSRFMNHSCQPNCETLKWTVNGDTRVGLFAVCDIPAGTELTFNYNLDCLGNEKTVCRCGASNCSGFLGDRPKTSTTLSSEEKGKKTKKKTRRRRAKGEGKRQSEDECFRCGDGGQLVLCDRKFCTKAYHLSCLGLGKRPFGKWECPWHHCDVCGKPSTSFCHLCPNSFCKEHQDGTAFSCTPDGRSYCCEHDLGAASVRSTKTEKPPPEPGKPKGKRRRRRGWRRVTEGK

INS1 = assay: INS-1E survival protection against cytokine death – cell-based, luminescence, retest, dose response (AID 449756); type: functional; details: Rattus norvegicus;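 also: cell death triggered by IL-1 beta plus TNF-alpha plus IFN-gamma mixture; protective hits raise ATP signal compared with cytokine alone wells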

Chain of Paired box protein Pax-8 (Q06710 whole entry): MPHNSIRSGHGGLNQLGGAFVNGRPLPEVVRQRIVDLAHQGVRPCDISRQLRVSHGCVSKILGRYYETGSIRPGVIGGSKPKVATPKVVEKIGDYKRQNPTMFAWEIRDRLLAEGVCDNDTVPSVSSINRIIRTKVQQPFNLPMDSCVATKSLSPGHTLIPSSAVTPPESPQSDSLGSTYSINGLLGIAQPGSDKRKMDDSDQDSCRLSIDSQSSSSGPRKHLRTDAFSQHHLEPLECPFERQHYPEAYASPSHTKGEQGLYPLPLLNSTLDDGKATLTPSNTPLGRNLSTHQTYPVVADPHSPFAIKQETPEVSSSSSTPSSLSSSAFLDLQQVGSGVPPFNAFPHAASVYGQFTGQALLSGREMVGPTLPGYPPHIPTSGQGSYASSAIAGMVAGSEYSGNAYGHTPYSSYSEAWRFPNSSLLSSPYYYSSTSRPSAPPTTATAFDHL
Chain of FAD-linked sulfhydryl oxidase ALR (P55789 whole entry): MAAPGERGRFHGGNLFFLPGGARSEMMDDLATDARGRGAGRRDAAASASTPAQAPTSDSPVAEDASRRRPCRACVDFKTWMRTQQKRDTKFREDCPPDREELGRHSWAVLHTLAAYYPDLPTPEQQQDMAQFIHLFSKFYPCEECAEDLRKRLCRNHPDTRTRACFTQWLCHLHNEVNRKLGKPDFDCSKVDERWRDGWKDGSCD

## CC(=O)c1cccc(NC(=O)/C=C/c2ccc([N+](=O)[O-])s2)c1
BJ [1]
  EC50: 4.44 µM (active)
BJ [2]
  EC50: > 150 µM (inconclusive)
BJ [3]
  EC50: 4.95 µM (inconclusive)
[4]
  EC50: 5.53 µM (active)
[5]
  AC50: 7.16 µM (active)
BJ [6]
  EC50: 0.545 µM (inconclusive)

## NNS(=O)(=O)c1ccc2c(c1)Cc1cc(S(=O)(=O)NN)ccc1-2
[7]
  AC50: 0.079 µM (active)
[8]
  EC50: 89.5 µM (inactive)
[9]
  EC50: 4.48 µM (active)
Caspase-6
  AC50: 15.8 µM (active)

## COCCN1C=C2C(=O)C(C)(OC(=O)CCC(=O)OC)C(=O)C(Br)=C2C=C1c1ccc(OC)cc1 (stereo unspecified)
[10]
  IC50: 11 µM (active)

## CCCCn1c(N)c(N(CCC(C)C)C(=O)COC(=O)c2ccc([N+](=O)[O-])s2)c(=O)[nH]c1=O
Paired box protein Pax-8
  AC50: 8.14 µM (active)
[11]
  AC50: 12.3 µM (active)

## CCCCn1cc[n+](C2=C([N-]S(=O)(=O)c3ccc(Br)cc3)C(=O)c3ccccc3C2=O)c1
[10]
  IC50: 8.28 µM (active)
INS1
  AC50: 2.86 µM (active)

## CCN(CC)CCNC(=O)c1ccc(CS(=O)(=O)c2ccccc2C)o1
[11]
  AC50: > 20 µM (inactive)
